“Also recorded” adds a separate entry of the source. Read-outs that look alike come from different tables or passages of the source.
Tests used:
[1] = system: human mammary tumoral lineage T-47D; experiment: Clonogenic test (soft agar), growth of cellular colonies; assay type: cell-based; details: for activity at 0.1 µM / activity at 0.01 µM / activity at 0.001 µM / activity at 0.0001 µM: 504 h, read-out: mean number of cellular colonies in relation to control; for effect on growth of cellular colonies (in words): soft agar
Method in brief: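 Colony counts (clones over 100 μm², MTT-stained for at least 3 h) are expressed as a percentage of the untreated control. T-47D cells grew anchorage-independently between a 0.5% agar base and a 0.3% agar top layer. Cultures were incubated for 21 days after treatment at 37 °C with 5% CO2.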

[2] = system: AP-1, MTLN lineage (MCF-7); experiment: Anti-AP-1 effect, MTLN lineage activated by TPA; assay type: cell-based, human; details: for inhibition at 0.01 µM / inhibition at 0.1 µM / inhibition at 1 µM: Homo sapiens; for inhibition at 1 µM: 10^-6 M; for anti-AP-1 effect (in words): TPA-activated MTLN cells
Method in brief: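 Percent inhibition of AP-1-driven luciferase after basal activity deduction, expressed as a range across repeat experiments. Cells: MTLN, an MCF-7 line stably transfected with p(TRE)3-tk-Luc and stimulated with 10^-7 M TPA; tests in duplicate.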

[3] = system: ERE-βGlob-Luc, MELN lineage (MCF-7); experiment: Anti-oestrogenic effect, MELN lineage activated by estradiol; assay type: cell-based, human; details: for anti-oestrogenic effect (in words): estradiol-activated MELN cells; for inhibition: 10^-6 M
From the text: Certain properties of the retinoids have been determined using more developed cellular models. These models consist of cellular lineages transfected in a stable fashion by recombinant plasmids which place the expression of the gene of the luciferase under the control of different nuclear response elements. […] The tests carried out in duplicate are described below for each of these models.
MCF-7 cells express RARα,γ and RXRα. The transfection of MCF-7 cells by an oestrogen-dependent gene (ERE-βGlob-Luc) has permitted the establishment of the MELN cellular lineage, used to determine the anti-oestrogenic activity of the retinoids. These cells contain the gene of the luciferase under the transcriptional control of the promoter of the βGlobine and of the response element ERE isolated from the gene of chicken vitelogenine A2. The experiments are carried out with MELN cells activated by 10^-9 M estradiol. The level of base activity of the MELN cells is obtained with the anti-oestrogen 1 μM 4-OH-tamoxifen (hydroxytamoxifen).
The effect of the products tested on the cells activated by 10^-9 M estradiol is expressed as a percentage, the level of base activity being deducted.

[4] = system: RAR-ERcassettes (RARα, RARβ, RARγ); experiment: Chimerical receptors RAR-ERcassettes, overall profile; assay type: cell-based
From the text: The HeLa cells are co-transfected by a plasmid which codes for a retinoic receptor in which the C domain of bonding to the DNA is substituted by that of the receptor to RE oestrogens, and a plasmid which places the expression of the luciferase under the control of an ERE (Element of Response to Oestrogens). The expressed chimerical receptors are designated as RARα-ERcassette, RARβ-ERcassette, RARγ-ERcassette and RXRα-ERcassette. The A, B, D, E and F regions of the natural receptor are preserved as well as the transcriptional co-operation between the activation domains AF-1 and AF-2. These transitory transfection experiments follow the method of co-precipitation to calcium phosphate. The HeLa cells are co-transfected by […] of plasmid coding for the chimerical receptor, […] of reporter plasmid and […] of expression vector CMV-β-galactosidase used as an internal control of transfection. 24 hours after the transfection, the cells are incubated for 16 hours with the different effectors.
In this type of chimerical receptor, the C domain of bonding to the DNA of RAR is substituted by that of the receptor to the RE oestrogens. The protein obtained is close to the natural RAR receptor and preserves the transcriptional properties of the AF-1 and AF-2 domains. It modulates the transcription by means of an ERE. This RAR-ERcassette model allows one to observe a transcriptional response to a more physiological ligand.

Gal4-RARγ = experiment: Transactivation, chimerical receptor Gal4-RARγ (transitory transfection of HeLa); assay type: cell-based; details: 100% = TTNPB 10^-8 M
[5] = Homo sapiens, T47D, T-47D, 10^-7 M, 21 days, control = 100%
[6] = Homo sapiens, T47D, T-47D, 10^-8 M, 21 days, control = 100%
[7] = Homo sapiens, T47D, T-47D, 10^-9 M, 21 days, control = 100%
[8] = Homo sapiens, T47D, T-47D, 10^-10 M, 21 days, control = 100%
[9] = MCF7, read-out: anti-AP-1 effect, inhibition
[10] = Homo sapiens, MCF7, read-out: anti-oestrogenic effect, inhibition
[11] = MCF7, cells activated by 10^-7 M TPA, range of several experiments
[12] = Homo sapiens, MCF7, cells activated by 10^-9 M estradiol
[13] = MCF7, 10^-7 M, cells activated by 10^-7 M TPA, range of several experiments, read-out: anti-AP-1 effect, inhibition
[14] = Homo sapiens, MCF7, 10^-7 M, cells activated by 10^-9 M estradiol, read-out: anti-oestrogenic effect, inhibition
[15] = Homo sapiens, MCF7, 10^-8 M, cells activated by 10^-9 M estradiol, read-out: anti-oestrogenic effect, inhibition

Row | Compound | activity at 0.1 µM [1, 5] [%] | activity at 0.01 µM [1, 6] [%] | activity at 0.001 µM [1, 7] [%] | activity at 0.0001 µM [1, 8] [%] | effect on growth of cellular colonies (in words) ([1]; T-47D) | inhibition at 0.01 µM [2, 9] [%] | inhibition at 0.1 µM [3, 10] [%] | RAR-ERcassette profile (in words) [4] | inhibition at 0.1 µM [2, 9] [%] | anti-oestrogenic effect (in words) [3] | GAL4-RAR RARγ transactivation (Gal4-RARγ; 10^-6 M) [%] | inhibition at 1 µM [2, 11] [%] | inhibition [3, 12] [%] | anti-AP-1 effect (in words) [2] | inhibition at 0.1 µM [3, 14] [%] | other results
1 | CC(C=C/C=C(C)\C=C\C1=C(C)CCCC1(C)C)=CC(=O)O [CB13407, 9-cis retinoic acid, reference compound] | 6.7 | 45.6 | 52.8 | 54.9 | significant and dose dependent inhibiting activity | 30 to 37 | 35 | induce an over-expression of luciferase in comparison to the induction brought about by a synthetic compound (TTNPB) |  |  |  |  |  |  |  | 
2 | CC1=C(/C=C/C(C)=C/C=C/C(C)=C/C(=O)O)C(C)(C)CCC1 [CB16178, all-trans retinoic acid, reference compound] |  |  |  |  |  | 22 to 33 | 35 | induce an over-expression of luciferase in comparison to the induction brought about by a synthetic compound (TTNPB) | 28 to 44 | reduces the cellular growth and the expression of oestrogen-dependent genes |  |  |  |  |  | 
3 | C/C(=C/c1ccc2c(c1)C(C)(C)CCC2(C)C)c1ccc(C(=O)O)nc1 [CB16279, (Z) 5-[1-(5,6,7,8-tetrahydro-5,5,8,8-tetramethyl-2-naphthalenyl)-2-propenyl]pyridinyl-2-carboxylic acid] | 102 ± 3.4 |  | 110 ± 1.5 |  | does not induce any significant modification in the growth of the cellular colonies |  |  | induce a transactivation mediated by the three receptors |  | permit a transrepression of a controlled gene by an ERE | 59 | 23 to 26 | 32 |  |  | 
4 | C/C(=C/c1ccc2c(c1)C(C)(C)CCC2(C)C)c1ccc(C(=O)O)cc1 [CB28628, reference compound] | 21.4 | 97.6 | 89.2 |  | strongly and significantly inhibits the growth of the cellular colonies at the concentration of 10^-7 M but very rapidly loses its activity beyond the concentration of 10^-8 M |  |  | complete agonist for RARγ-ERcassetteand induce an over-activation of RARα-ERcassette and RARβ-ERcassette at 1 μM |  |  |  | 58 | 29 to 41 | exhibits a strong anti-AP-1 effect on the MCF-7 cells | 31 | GAL4-RAR RARγ transactivation (Gal4-RARγ; 10^-7 M): 106%; inhibition at 0.1 µM [2, 13]: 40%
5 | C/C(=C\c1cc2c(cc1C)C(C)(C)CCC2(C)C)c1ccc(C(=O)O)cc1 [CB71802] |  | 45.2 ± 4.8 | 92.5 ± 9.6 | 104 ± 2.3 |  |  |  |  |  |  |  |  | 32 to 48 |  | 37 | inhibition at 0.01 µM [3, 15]: 5%
6 | C/C(=C\c1ccc2c(c1)C(C)(C)CCC2(C)C)c1ccc(C(=O)Nc2nnn[nH]2)cc1 [CB73364] |  | 10.3 ± 2.8 | 54.9 ± 5.8 | 99.3 ± 7.8 | inhibit the growth of the cellular colonies |  |  |  |  |  |  |  | 20 to 41 |  | 24 | inhibition at 0.01 µM ([1]; Homo sapiens, T47D, T-47D, 10^-8 M, read-out: inhibition of colony growth): 69.7%; inhibition at 0.01 µM [3, 15]: 13%
7 | CC1(C)CCC(C)(C)c2cc(/C=C(\c3ccc(-c4nnn[nH]4)cc3)C(F)(F)F)ccc21 [CB77402, (E) 5-[4-[1-trifluoromethyl-2-(5,6,7,8-tetrahydro-5,5,8,8-tetramethyl-2-naphthalenyl)-1-ethenyl]phenyl]-1H-tetrazole] |  |  |  |  |  |  |  | do not permit transactivation mediated by RARα-ERcassette and RARγ-cassette. However, a partial transactivation of RARβ-ERcassette is observed; also recorded: with a specific RAR agonist permits an over-activation of the effect of the RAR molecule alone for the three RAR-ERcassette receptors |  | inactive | 0 | 30 to 33 | 0 | anti-AP-1 molecules through RXR; also recorded: additive nature of the anti-AP-1 inhibitor effect |  | inhibition at 0.1 µM [2, 13]: 21 to 23%
8 | Cc1cc2c(cc1C(=O)c1ccc(C(=O)O)cc1)C(C)(C)CCC2(C)C [LGD-CB14499, reference compound] |  |  |  |  |  |  | 0 | transcriptional power appears higher notably through the RARβ-ERcassette | 17 to 30 | inactive | 13 |  |  | causes an inhibition of the AP-1 route |  | GAL4-RAR RARγ transactivation (Gal4-RARγ; 10^-7 M): 0%; GAL4-RAR RARγ transactivation (Gal4-RARγ; 10^-8 M): 0%; inhibition at 1 µM [3, 10]: 0%
9 | C/C(=C\c1ccc(C(=O)O)cc1)c1ccc2c(c1)C(C)(C)CCC2(C)C [TTNPB, reference compound] |  |  |  |  | more active than the product CB36493 of the cis series (Z) | 26 to 53 |  |  | 29 to 54 |  |  |  |  |  |  | activity at 0.0001 µM ([1]; Homo sapiens, T47D): 34.1%; activity at 0.001 µM ([1]; Homo sapiens, T47D): 5.5%; activity at 0.01 µM ([1]; Homo sapiens, T47D): 2.1%; activity at 0.1 µM ([1]; Homo sapiens, T47D): 1.3%; inhibition at 0.0001 µM ([1]; Homo sapiens, T47D, read-out: inhibition of colony growth): 66%; effect on growth of cellular colonies (in words) ([1]; T-47D, listed as CB01570): inhibits very strongly, in a significant and dose dependent manner the growth of cellular colonies; inhibition at 0.01 µM [3, 10]: 30 to 41%; anti-oestrogenic effect, inhibition (of the order of) ([3]; MELN, estradiol 10^-9 M): ~40%
